pIC50: −log10 of the molar value.
Key:
[1] = test system: RUES2 hESC-CMs wild-type; assay: MEA dose-response of compounds on spontaneous electrical activity of hESC-CMs; assay type: cell-based, human; conditions: for beating frequency / beat rate (effect in words) / spike amplitude (effect in words): RUES2 hESC-CMs wild-type on MEA, increasing doses vs DMSO control
Excerpt: FIGS. 6A-6F. […] Data shown as mean±SEM of 2 independent experiments each with 6 technical replicates (wells), and normalized on experimental baseline and expressed as % vs. DMSO control. Lines represents nonlinear regression of normalized response Y=100/(1+10^((LogIC50-X)*HillSlope))).
FIGS. 13A-13C. […] (FIGS. 13A, 13B, 13C) Dose-response curve of Mibefradil (ICaT, FIG. 13A), Zacopride (IK1 agonist, FIG. 13B) and Verapamil (L-type calcium channel inhibitor, FIG. 13C) on MEA system. Data shown as mean±SEM of 2 independent experiments normalized on baseline and expressed as % vs DMSO control (N=2, n=6). Lines represent nonlinear regression of normalized response Y=100/(1+10^((LogIC50-X)*HillSlope))).
The role of ion channels in automaticity has been so far largely studied in the context of the adult mouse sinoatrial node. Whether the same mechanisms also apply to hPSC-CMs and/or fetal human cardiomyocytes remains controversial. First, a variety of pharmacological compounds were tested on hPSC-CMs derived from the RUES2 human embryonic stem cells (hESCs), which were differentiated by sequential small molecule-based activation and inhibition of the WNT pathway. The inventors performed electrophysiological analyses using a multielectrode array (MEA) to record the effects of the different compounds on hPSC-CMs spontaneous electrical activity. […] Zacopride, reported to have agonistic effect on the Kir2.1 channel (encoded by KCNJ2) that mediates IKI currents, was also tested.
CytoView™ MEA 48 were coated with 0.17 mg/mL of Matrigel for 1 hour at 37° C. […] For spontaneous beat recording, spontaneous electrical activity was recorded for 5 min using Maestro™ Pro system at 37° C. with 5% CO2. Considering the irregular beat rate of the cell lines bearing KCNJ2 KI, the data are shown as total number of beats recorded per experiment, divided by the total time of recording (average beats/min). For pharmacological studies, the different compounds were diluted in DMSO and incubated directly on MEA plates for 5 min at 37° C. Effects on spontaneous beat rate was determined by recording for 15 min after drug incubation. Non-linear regression curve calculated as Y=100/(1+10^((LogIC50-X)*HillSlope))). […] Quantification of beat rate, spike amplitude and beat period irregularity was performed using Axis Navigator (beat detector threshold: 30-100 μV; Minimum beat period: 200-500 ms; Maximum beat period: 30s).

[2] = test system: EA in pigs; conditions: after hPSC-CM transplantation, reference [17]; cited from earlier work

Row | SMILES | beating frequency / beat rate (effect in words) [1] | spike amplitude (effect in words) [1] | also measured
1 | COc1cc2c(cc1OC)CC(=O)N(CCCN(C)C[C@H]1Cc3cc(OC)c(OC)cc31)CC2 [Ivabradine] | potently reduced | did not alter | spontaneous AP firing ([1]; very high doses of ivabradine (100 μM)): did not prevent; effect on EA in pigs [2]: reduces heart rate but does not prevent EA
2 | N=C(N)SCCc1ccc(OCc2ccc([N+](=O)[O-])cc2)cc1 [KB-R3702] | dose-dependent reduction | dose-dependent reduction | 
3 | CC(C)(C)CCN1C[C@@H]2C(CNC(=O)c3cc(Cl)cc(Cl)c3)[C@@H]2C1 (stereo partly shown) [ML-218] | no effect on beating frequency until spike amplitudes were undetectable |  | LogIC50 ([1]; MEA dose-response, nonlinear regression of normalized response, log value, concentration unit not given): −4.8±0.1424; doses at which spike amplitude decreased ([1]; MEA, hESC-CMs): above 1 μM
4 | COCC(=O)O[C@]1(CCN(C)CCCc2nc3ccccc3[nH]2)CCc2cc(F)ccc2[C@@H]1C(C)C [Mibefradil] |  |  | pIC50 ([1]; Homo sapiens, MEA dose-response, nonlinear regression of normalized response, log value, concentration unit inferred): 7.70
5 | CCOc1ccc(Oc2ccc(OCc3cc(F)ccc3F)cc2)c(N)c1 [SEA0400] | dose-dependent reduction | dose-dependent reduction | 
6 | COc1ccc(CCN(C)CCCC(C#N)(c2ccc(OC)c(OC)c2)C(C)C)cc1OC (stereo not shown) [Verapamil] | progressively decrease | progressively decrease | 
7 | COc1cc(N)c(Cl)cc1C(=O)NC1CN2CCC1CC2 (stereo not shown) [Zacopride] | did not show measurable effects | did not show measurable effects | 
